Patent US20260070902A1, “SULFONYL DERIVATIVES AS CCR6 INHIBITORS” (Hoffmann-La Roche Inc., priority 2022, published 2026)

Assays:
Format in all cases: cell-based
human CCR6 [1] = target: T1, human CCR6 (Homo sapiens, UniProt P51684); assay: CHO-K1 CCR6 chemotaxis assay towards CCL20; conditions: relative -Log IC50; CHO-K1 cells overexpressing human CCR6; migration towards 100 ng/ml CCL20; 4 h
T1 sequence (P51684 1-374): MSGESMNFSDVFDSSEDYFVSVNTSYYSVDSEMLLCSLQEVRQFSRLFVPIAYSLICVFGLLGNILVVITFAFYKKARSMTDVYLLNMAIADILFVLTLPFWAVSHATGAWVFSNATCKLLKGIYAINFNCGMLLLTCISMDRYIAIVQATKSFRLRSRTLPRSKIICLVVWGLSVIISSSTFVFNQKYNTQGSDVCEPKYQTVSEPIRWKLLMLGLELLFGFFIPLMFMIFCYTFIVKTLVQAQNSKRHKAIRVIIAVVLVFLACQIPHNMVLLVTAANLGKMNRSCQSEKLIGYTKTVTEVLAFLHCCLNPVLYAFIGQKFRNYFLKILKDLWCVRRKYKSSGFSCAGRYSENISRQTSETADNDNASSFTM
In short: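 Human CCR6-overexpressing CHO-K1 cells (2*10^6 cells/ml) were preincubated 30 min at 37 °C with compound (0.2% DMSO), then allowed to migrate 4 h through 8 µm Transwell pores toward 100 ng/ml CCL20. Migrated cells were counted by CellTiter Glo. −Log IC50 came from four-parameter fits normalised to DMSO without/with CCL20.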

Human CD4+ T cells = assay: CD4+ T cells chemotaxis assay towards CCL20; conditions: Homo sapiens, CD4+ T cell, 3 h, relative -Log IC50, human CD4+ T cells stimulated with anti-CD3 and anti-CD28, migration towards 150 ng/ml CCL20
Excerpt: CD4+ T Cells Chemotaxis Assay Towards CCL20
Human CD4+ T cells were isolated from buffy coats of healthy donors using a CD4+ T Cell Isolation Kit (Miltenyi Biotec130-096-533). Isolated T cells were stimulated overnight with anti-CD3 and anti-CD28 antibodies (Biolegend 300314/302934) in growth medium (RPMI1640, 10% heat-inactivated FBS, 1× pen/strep (Gibco 15140)). For the chemotaxis assay, Corning Transwell plates were used with a pore size of 5 m (Corning 3388). T cells were counted and diluted to 6*10^6 cells/ml in chemotaxis medium (RPMI1640, 1% BSA, pen/strep). Compounds were four-fold serially diluted in DMSO. Further dilutions were made in chemotaxis medium. Cells were incubated with test compounds for 30 min at 37° C. prior to initiation of the assay (3*10^6 cells/ml). Final DMSO concentration in the assay was 0.2%. Wells of the Transwell plates were filled with 200 μl chemotaxis medium containing 150 ng/ml CCL20 (R&D systems 360-MP). 50 μl of the cell/compound suspension was added to the inserts of the Transwell plates (150,000 cells/insert). The Transwell plates were placed in an incubator at 37° C., 5% CO2 for 3 h. After 3 h, the number of migrated cells was quantified using CellTiter Glo (Promega). Percentage inhibition values were calculated based on the low and high signal obtained with 0.2% DMSO in chemotaxis medium without and with CCL20, respectively. The relative −Log IC50 was determined with GraphPad Prism 9 using a four-parameter dose-response model.

human CCR6 [2] = target: T1, human CCR6; assay: Human CCR6-CRE reporter assay; parameters: The second construct contained the open reading frame of human CCR6 in the pUNO1 backbone; host or cells: 293FT cells; conditions: relative -Log IC50; 293FT cells transfected with human CCR6 and CRE-luciferase reporter; 6 μM Forskolin, 6 nM CCL20; 5 h
In short: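 293FT cells transiently co-transfected with human CCR6 and a CRE-luc2P reporter, used 48 h later. Compounds incubated with cells in medium containing 6 μM Forskolin and 6 nM CCL20 (assay-medium levels), 0.1% DMSO final, 5 h at 37° C; luminescence read, relative −Log IC50 from four-parameter fit.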

IC50 (human CCR6 [1]) [nM] | IC50 (Human CD4+ T cells) [nM] | IC50 (human CCR6 [2]) [nM] | Structure (SMILES)
63.1 | 79.4 | 100 | CC(C)c1nnc2cnc(-c3ccc(S(=N)(=O)[C@H]4CC[C@H](Nc5ccc(S(F)(F)(F)(F)F)cc5)CC4)cc3)cn12 (stereo partly drawn) [Example 162, {4-[3-(propan-2-yl)-[1,2,4]triazolo[4,3-a]pyrazin-6-yl]phenyl}[trans-4-{[4-(pentafluoro-λ^6-sulfanyl)phenyl]amino}cyclohexyl](imino)-λ^6-sulfanone]
200 | 6.31 | 158 | O=S(=O)(c1ccc(-c2ccc3nccn3c2)cc1)[C@H]1CC[C@@H](Nc2ccc(S(F)(F)(F)(F)F)cc2)CC1 [Example 18, 4-(pentafluoro-λ^6-sulfanyl)-N-[cis-4-(4-{imidazo[1,2-a]pyridin-6-yl}benzenesulfonyl)cyclohexyl]aniline]
3.98 | 2.51 | 31.6 | O=S(=O)(c1ccc(-c2ccc3nccn3c2)cc1)N1CCC(Nc2ccc(S(F)(F)(F)(F)F)cn2)CC1 [Example 173, N-[1-(4-{imidazo[1,2-a]pyridin-6-yl}benzenesulfonyl)piperidin-4-yl]-5-(pentafluoro-λ^6-sulfanyl)pyridin-2-amine]
126 | 25.1 | 100 | N#Cc1c[nH]c2ccc(-c3ccc(S(=N)(=O)[C@H]4CC[C@H](Nc5ccc(S(F)(F)(F)(F)F)cc5)CC4)cc3)cc12 (stereo partly drawn) [Example 85, 5-(4-{[trans-4-{[4-(pentafluoro-λ^6-sulfanyl)phenyl]Amino}cyclohexyl]sulfonimidoyl}phenyl)-1H-indole-3-carbonitrile]
79.4 | 12.6 | 79.4 | NC(=O)c1cc(-c2ccc(S(=O)(=O)N3CCC(Nc4ccc(S(F)(F)(F)(F)F)cc4)CC3)cc2)ccn1 [Example 177, 4-{4-[(4-{[4-(pentafluoro-λ^6-sulfanyl)phenyl]amino}piperidin-1-yl)sulfonyl]phenyl}pyridine-2-carboxamide]
10 | 1.58 | 126 | O=S(=O)(c1ccc(-c2ccc3nnc(C(F)F)n3c2)cc1)[C@H]1CC[C@H](Nc2ccc(S(F)(F)(F)(F)F)cc2)CC1 [Example 176, 4-(pentafluoro-λ^6-sulfanyl)-N-[trans-4-{4-[3-(difluoromethyl)-[1,2,4]triazolo[4,3-a]pyridin-6-yl]benzenesulfonyl}cyclohexyl]aniline]
100 | 15.8 | 50.1 | NC(=O)c1nnc2ccc(-c3ccc(S(=O)(=O)N4CCC(Nc5ccc(S(F)(F)(F)(F)F)cc5)CC4)cc3)cn12 [Example 26, 6-{4-[(4-{[4-(pentafluoro-λ^6-sulfanyl)phenyl]Amino}piperidin-1-yl)sulfonyl]phenyl}-[1,2,4]triazolo[4,3-a]pyridine-3-carboxamide]
10 | 5.01 | 20 | NC(=O)c1cc(-c2ccc(S(=O)(=O)N3CCC(Nc4ccc(S(F)(F)(F)(F)F)cn4)CC3)cc2)ccn1 [Example 175, 4-{4-[(4-{[5-(pentafluoro-λ^6-sulfanyl)pyridin-2-yl]amino}piperidin-1-yl)sulfonyl]phenyl}pyridine-2-carboxamide]
2000 | 10000 | 501 | Cc1nnc2cnc(-c3ccc(S(=N)(=O)[C@H]4CC[C@H](Nc5ccc(S(F)(F)(F)(F)F)cc5)CC4)cc3)cn12 (stereo partly drawn) [Example 170, (4-{3-methyl-[1,2,4]triazolo[4,3-a]pyrazin-6-yl}phenyl) [trans-4-{[4-(pentafluoro-λ^6-sulfanyl)phenyl]amino}cyclohexyl](imino)-λ^6-sulfanone]
63.1 | 5.01 | 63.1 | Cc1nnc2ccc(-c3ccc(S(=O)(=O)N4CCC(Nc5ccc(S(F)(F)(F)(F)F)cc5)CC4)cc3)cn12 [Example 27, 1-(4-{3-methyl-[1,2,4]triazolo[4,3-a]pyridin-6-yl}benzenesulfonyl)-N-[4-(pentafluoro-λ^6-sulfanyl)phenyl]piperidin-4-amine]
398 | 31.6 | 100 | CN(C)C(=O)c1ccc(-c2ccc(S(=O)(=O)[C@H]3CC[C@H](Nc4ccc(S(F)(F)(F)(F)F)cc4)CC3)cc2)cn1 [Example 20, N,N-dimethyl-5-(4-{[trans-4-{[4-(pentafluoro-λ^6-sulfanyl)phenyl]Amino}cyclohexyl]sulfonyl}phenyl)pyridine-2-carboxamide]
25.1 | 3.98 | 100 | Cc1nnc2ccc(-c3ccc(S(=O)(=O)[C@H]4CC[C@H](Nc5ccc(S(F)(F)(F)(F)F)cc5)CC4)cc3)cn12 [Example 11, 4-(pentafluoro-λ^6-sulfanyl)-N-[trans-4-(4-{3-methyl-[1,2,4]triazolo[4,3-a]pyridin-6-yl}benzenesulfonyl)cyclohexyl]aniline]
39.8 | 63.1 | 200 | NC(=O)c1cnc2ccc(-c3ccc(S(=O)(=O)[C@H]4CC[C@H](Nc5ccc(S(F)(F)(F)(F)F)cc5)CC4)cc3)cn12 [Example 34, 6-(4-{[trans-4-{[4-(pentafluoro-λ^6-sulfanyl)phenyl]Amino}cyclohexyl]sulfonyl}phenyl)imidazo[1,2-a]pyridine-3-carboxamide]
126 | 158 | 200 | N=S(=O)(c1ccc(-c2ccc3nccn3c2)cc1)[C@H]1CC[C@H](Nc2ccc(S(F)(F)(F)(F)F)cc2)CC1 (stereo partly drawn) [Example 87, (4-{imidazo[1,2-a]pyridin-6-yl}phenyl)[trans-4-{[4-(pentafluoro-λ^6-sulfanyl)phenyl]Amino}cyclohexyl](imino)-λ^6-sulfanone]
 | 10 | 100 | Cc1nc2ccc(-c3ccc(S(=O)(=O)[C@H]4CC[C@H](Nc5ccc(S(F)(F)(F)(F)F)cc5)CC4)cc3)cn2n1 [Example 40, 4-(pentafluoro-λ^6-sulfanyl)-N-[trans-4-(4-{2-methyl-[1,2,4]triazolo[1,5-a]pyridin-6-yl}benzenesulfonyl)cyclohexyl]aniline]
 | 6.31 | 63.1 | O=S(=O)(c1ccc(-c2cc(C(F)(F)F)c3nccn3c2)cc1)[C@H]1CC[C@H](Nc2ccc(S(F)(F)(F)(F)F)cc2)CC1 [Example 151, 4-(pentafluoro-λ^6-sulfanyl)-N-[trans-4-{4-[8-(trifluoromethyl)imidazo[1,2-a]pyridin-6-yl]benzenesulfonyl}cyclohexyl]aniline]
 | 7.94 | 126 | O=c1[nH]ccn2cc(-c3ccc(S(=O)(=O)[C@H]4CC[C@H](Nc5ccc(S(F)(F)(F)(F)F)cc5)CC4)cc3)cc12 [Example 154, 7-(4-{[trans-4-{[4-(pentafluoro-λ^6-sulfanyl)phenyl]amino}cyclohexyl]sulfonyl}phenyl)-1H,2H-pyrrolo[1,2-a]pyrazin-1-one]
 | 3.98 | 50.1 | N#Cc1cc(-c2ccc(S(=O)(=O)[C@H]3CC[C@H](Nc4ccc(S(F)(F)(F)(F)F)cc4)CC3)cc2)cn2ccnc12 [Example 160, 6-(4-{[trans-4-{[4-(pentafluoro-λ^6-sulfanyl)phenyl]amino}cyclohexyl]sulfonyl}phenyl)imidazo[1,2-a]pyridine-8-carbonitrile]
 | 5.01 | 50.1 | NC(=O)c1cc(-c2ccc(S(=O)(=O)[C@H]3CC[C@H](Nc4ccc(S(F)(F)(F)(F)F)cc4)CC3)cc2)cs1 [Example 148, 4-(4-{[trans-4-{[4-(pentafluoro-λ^6-sulfanyl)phenyl]amino}cyclohexyl]sulfonyl}phenyl)thiophene-2-carboxamide]
